Source: patent US5369030A, “Method of inducing cellular differentiations and altering cell phenotype using ceramide analogs” (Duke University, priority 1992, dated 1994)
Like-named read-outs stand apart in the source and are kept apart here.

Experiments:
HL-60 cells [1] = assay: HL-60 differentiation, H2O2 generation; assay type: cell-based, human
Description: (§1) Human myelocytic leukemia HL-60 cells (20-45 passages (American Type Culture Collection, Rockville, Md., accession no. CCL 240) were obtained and grown in RPMI 1640 medium (Sigma Chemical Co., St. Louis, Mo.) containing 10% fetal calf serum at 37° C. in 5% CO2 incubator at a cell density of 2×10^5 cells/mi. The cells were washed once with phosphate buffered saline (PBS) and resuspended in serum-free media containing insulin (5 mg/liter) and transferrin (5 mg/liter) for 2-3 hours before treatment with various compounds.
Therefore, 3 μM C14-L-t-APPD was applied to HL-60 cells either alone or in combination with subthreshold levels (0.3 nM) of 1,25-dihydroxyvitamin D3 (D3), and cell differentiation was determined at 60 and 108 hours following treatment by quantitating […] generation, a marker of HL-60 differentiation. Subthreshold levels of D3 refers to levels of D3 that are too low to induce differentiation of HL60 cells.
H2 O2 production was quantitated as described in Goodwin, B. J. and Weinberg, J. B., J. Clin. Invest. 70:699-706 (1982) and Pick, E. and Mizel, D. J. Immunol. Methods 46: 211-226 (1981). For comparison, HL60 cell differentiation obtained with 2 μM C2-ceramide alone and 0.3 nM vitamin D3 are were also determined.

[2] = tested on: sphingomyelin in HL-60 cells; settings: previous study, Okazaki, T., et al.; cited from earlier work
HL-60 cells [3] = settings: Okazaki et al.; cited from earlier work
HL-60 cells [4] = settings: Okazaki et al.; cited from earlier work; remark: listed apart in the source
HL-60 cells [5] = assay: Uptake of [3H]-labeled compounds; assay type: cell-based, human; settings: [3H]-labeled compound
Description: (1R, 2S) 2-(N-[^3 H]-myristoylamino)-1-phenyl-1propanol ([^3 H] C14-L-e-APP-1) and (1S, 2R) 2-(N-[^3 H]-myristoylamino)-1-phenyl-1-propanol ([^3 H]C14-D-e-APP-1) were prepared following the general procedures of Example 1 for synthesis of N-acyl-amino alcohols using [^3 H]-myristoyl chloride. Specific activity was ~3×10^3 cpms/nmol. [^3 H] myristoyl chloride was made from 9,10-[^3 H]-myristic acid and oxalyl chloride in dry benzene.
In studies using [^3 H]-labeled C14-D-e-APP-1 and C14-L-e-APP-1, uptake of the two compounds was nearly identical with 21% of [3 H]-C14-D-e-APP-1 taken up and 20% of [3 H]-C14-L-e-APP-1 taken up.

HL-60 cells [6] = assay: HL-60 cell growth/proliferation, cells counted with a hemocytometer; assay type: cell-based, human; settings: for activity at 1 µM / activity at 2 µM / activity at 3 µM / activity at 4 µM / activity at 5 µM / IC50: Homo sapiens; for cell density: starting density 2×10^5 cells/ml; for IC50: read-out: IC50%
Description: as §1
HL-60 cells were treated with 3 μM of Cn-L-t-APPD with acyl chain lengths of C6, C8, C10, C12, C14, C16, and C18 (m=4, 6, 8, 10, 12, 14 and 16) in fresh ehtanol solution or with an ethanol vehicle and cell growth was determined following three days of treatment. Cell growth was quantified using a hemocytometer. Cell viability was judged by the ability to exclude trypan blue dye. Viability was always more than 80% unless otherwise described.
HL-60 cells (starting cell density of 2×10^5 cells/ml) were treated with different concentrations of C14-L-t-APPD and cells were counted following 24 and 72 hours of treatment. The results are representative of three experiments. A 1μM dose of C14-L-t-APPD had little or no effect on cell growth at 24 or 72 hours (approximately 105% and 130% of control, respectively). A 2μM dose inhibited cell growth to approximately 65% of the control at both 24 and 72 hours. […] The IC50% was approximately 2 μM (10 fmol/cell). IC50% is the concentration of test compound that causes 50% inhibition of cell growth in comparison with controls. Thus, similar to results with C2-ceramide, C14-APPD inhibited cell proliferation at different durations of treatment.
HL-60 cells (starting cell density of 2×10^5 cells/ml) were treated with 3 μM Cn-L-t-APPD derivatives with N-acyl chain lengths of C6, C8, C10, C12, C14, C16, and C18 (m=4,6,8,10, 12, 14, and 16) and cells were counted at 0, 12, 36, 60, 84 and 108 hours post treatment. The results are representative of 3 experiments.
N-acyl derivatives of 2-amino-1-(4'-nitrophenyl)-1,3-propanediol (Cn-D-t-ANPPD) were tested to determine the effects of chain length on HL-60 cell growth as described in Examples 3 A. HL-60 cells (at a starting cell density of 2×10^5 cells/ml) were treated with 3 μM of the diff analogs (C6, C8, C10, C12, C14, C16 and C18) of Cn-D-t-ANPPD, and cell growth was determined at three days. The control received no Cn-D-t-ANPPD. Treatment of HL-60 cells with C2-ceramide is included for comparison.
HL-60 cells were treated with the indicated concentrations and cell growth was determined following three days of treatment as described in Example 3B.
The suitability of phenylaminopropanediol derivatives as analogs of ceramide allowed further investigation of the structural requirements for ceramide-mediated biology. For these experiments, C14 (N-myristoyl) derivatives of different phenylaminoalcohols were synthesized and examined for their biologic activity. HL-60 cells (starting cell density of 2×10^5 cells/ml) were treated with 3 μM of C14 derivatives C14-L-t-APPD, C14-D-t-ANPPD, C14-D-e-APP-1, C14-L-e-APP-1, C14-APP-3 and C14-D-APP3. The structures of these compounds are provided in Table I. Cell growth was determined at 3 days as described in Example 3A. The results shown are averages of two determinations, and are representative of five different experiments.
and C14-L-e-APP-1 HL-60 cells were treated as described in Example 3B. growth was determined after 3 days of treatment.

HL-60 cells [7] = assay: HL-60 differentiation, reduction of Nitro blue tetrazolium (NBT); assay type: cell-based, human; settings: 3 μM, three days; for cells acquiring the ability to reduce NBT: control cells 10%
Description: as §1
HL-60 cells were treated with 3 μM of C14-D-e-APP-1 or 3 μM C14-L-e-APP-1 for three days in accordance with the procedure described in Example 3D. Cell differentiation was determined by the ability of differentiated cells to reduce Nitro blue tetrazolium (NBT) as described in Okazaki, T. et. al., J. Biol. Chem. 265:15823-15831 (1990).

[8] = Example 5, 3 μM C14 derivatives, 3 days
[9] = HL-60, 72 h, Example 5, Table IV, 3 days, read-out: CELL GROWTH (% OF CONTROL)
[10] = HL-60, 72 h, Example 5, Table IV, 3 μM, 3 days, read-out: CELL GROWTH (% OF CONTROL)
[11] = HL-60, 24 h, Example 3B, 24 hours, read-out: cell growth, % of control
[12] = HL-60, 72 h, Example 3B, 72 hours, read-out: cell growth, % of control

C=C1/C(=C\C=C2/CCC[C@]3(C)[C@@H]([C@H](C)CCCC(C)(C)O)CC[C@@H]23)C[C@@H](O)C[C@@H]1O [1,25-dihydroxyvitamin D3, reference compound]
H2O2 generation (HL-60 cells [1]; 0.3 nM 1,25-dihydroxyvitamin D3, 60 hours): approximately 0.4 nmol H2O2 /10^5 cells
H2O2 generation (HL-60 cells [1]; 0.3 nM 1,25-dihydroxyvitamin D3, 108 hours): ~0.2 nmol/10^5 cells
hydrolysis of sphingomyelin (in words) [2]: caused hydrolysis of sphingomyelin in HL-60 cells

CCCCCCCCCCCCC/C=C/[C@@H](O)[C@@H](N)CO [sphingosine, Sphingosine]
HL-60 cell differentiation (in words) (HL-60 cells [3]): do not mimic the effects of ceramide on cell differentiation
HL-60 cell growth (in words) (HL-60 cells [4]): inhibit HL-60 cell growth

[3H]C(CCCC)C([3H])CCCCCCCC(=O)N[C@H](C)[C@@H](O)c1ccccc1 (stereo partly drawn) [[3 H]-C14-D-e-APP-1, (1S, 2R) 2-(N-[^3 H]-myristoylamino)-1-phenyl-1-propanol]
uptake (HL-60 cells [5]): 21%

CCCCCCCCCCCCCC(=O)N[C@@H](C)[C@H](O)c1ccccc1 [C14-L-e-APP-1]
inhibition of HL-60 cell growth (in words) (HL-60 cells [6]; Example 5, Table IV experiment, 1-5 μM, 3 days): no activity
cell growth, % of control (HL-60 cells [6]; [8]): 87%
activity at 1 µM (HL-60 cells [6]; [9]): 101%
activity at 2 µM (HL-60 cells [6]; [9]): 100%
activity at 3 µM (HL-60 cells [6]; [10]): 99%
activity at 4 µM (HL-60 cells [6]; [9]): 100%
activity at 5 µM (HL-60 cells [6]; [9]): 99%
level of differentiation (in words) (HL-60 cells [7]; NBT reduction): little activity over control
cells acquiring the ability to reduce NBT (HL-60 cells [7]): 12%

[3H]C(CCCC)C([3H])CCCCCCCC(=O)N[C@@H](C)[C@H](O)c1ccccc1 (stereo partly drawn) [[3 H]-C14-L-e-APP-1, (1R, 2S) 2-(N-[^3 H]-myristoylamino)-1-phenyl-1propanol]
uptake (HL-60 cells [5]): 20%

CCCCCCCCCCCCCC(=O)N[C@@H](CO)[C@@H](O)c1ccccc1 [C14-L-t-APPD, N-MYRISTOYL-L-THREO-2-AMINO-1-PHENYL-1,3-PROPANDIOL]
effect of combination on cell differentiation (in words) (HL-60 cells [1]; 3 μM C14-L-t-APPD + 0.3 nM 1,25-dihydroxyvitamin D3): synergistic effect on cell differentiation
H2O2 generation, combination (HL-60 cells [1]; 3 μM C14-L-t-APPD + 0.3 nM 1,25-dihydroxyvitamin D3, 60 hours): approximately 1.1 nmol H2O2 /10^5 cells
H2O2 generation, combination (HL-60 cells [1]; 3 μM C14-L-t-APPD + 0.3 nM 1,25-dihydroxyvitamin D3, 108 hours): ~1.0 nmol H2O2 /10^5 cells
H2O2 generation (HL-60 cells [1]; 3 μM C14-L-t-APPD alone, 60 hours): approximately 0.3 nmol/10^5 cells
H2O2 generation (HL-60 cells [1]; 3 μM C14-L-t-APPD alone, 108 hours): ~0.5 nmol/10^5 cells
effect on differentiation relative to C2-ceramide (in words) (HL-60 cells [1]; 3 μM C14-L-t-APPD vs 2 μM C2-ceramide): nearly identical to those of 2 μM C2-ceramide
cell growth, % of control (HL-60 cells [6]; Example 3A, 3 μM Cn-L-t-APPD, three days): ~15%
IC50% per cell (HL-60 cells [6]; Example 3B, 50% inhibition of cell growth, 2×10^5 cells/ml): approximately 10 fmol/cell
potency relative to C2-ceramide (in words) (HL-60 cells [6]; Example 3C, 3 μM): equally potent to C2-ceramide
cell density (HL-60 cells [6]; Example 3C, 3 μM, 84 hours): 100000 mL⁻¹
cell density (HL-60 cells [6]; Example 3C, 3 μM, 108 hours): 200000 mL⁻¹
inhibition of cell growth (in words) (HL-60 cells [6]; Example 3C, 3 μM, time course to 108 hours): able to inhibit cell growth by significant amounts
activity at 1 µM (HL-60 cells [6]; [11]): ~105%
activity at 2 µM (HL-60 cells [6]; [11]): ~65%
activity at 3 µM (HL-60 cells [6]; HL-60, 24 h, Example 3B, 3 μM, 24 hours, read-out: cell growth, % of control): < 10%
activity at 4 µM (HL-60 cells [6]; [11]): < 10%
activity at 1 µM (HL-60 cells [6]; [12]): ~130%
activity at 2 µM (HL-60 cells [6]; [12]): ~65%
activity at 3 µM (HL-60 cells [6]; HL-60, 72 h, Example 3B, 3 μM, 72 hours, read-out: cell growth, % of control): < 10%
activity at 4 µM (HL-60 cells [6]; [12]): < 10%
IC50 (HL-60 cells [6]; HL-60, Example 3B, 50% inhibition of cell growth, 2×10^5 cells/ml, 24 and 72 hours): ~2000 nM

CCCCCCCCCCCCC/C=C/[C@@H](O)[C@H](CO)NC(C)=O [C2-ceramide, N-acetyl-C18-sphingosine, reference compound]
H2O2 generation (HL-60 cells [1]; 2 μM C2-ceramide alone, 60 hours): approximately 0.3 nmol H2O2 /10^5 cells
H2O2 generation (HL-60 cells [1]; 2 μM C2-ceramide alone, 108 hours): approximately 0.3 nmol H2O2 /10^5 cells
H2O2 generation, combination (HL-60 cells [1]; 2 μM C2-ceramide in combination with 1,25-dihydroxyvitamin D3): approximately 0.9 nmol/10^5 cells
cell density (HL-60 cells [6]; Example 3C, C2-ceramide, concentration not given, 108 hours): 200000 mL⁻¹
CELL GROWTH (% OF CONTROL) (HL-60 cells [6]; Example 4A, Table II, 3 μM Cn-D-t-ANPPD (C2-ceramide concentration not given), three days): 20 % OF CONTROL
cell growth, % of control (HL-60 cells [6]; [8]): 20%

CCCCCCCCCCCCCC(=O)N[C@H](C)[C@@H](O)c1ccccc1 [C14-D-e-APP-1]
IC50% per cell number (HL-60 cells [6]; Example 5, Table IV experiment, HL-60 growth, 3 days): 125 fmol/10^5 cells
cell growth, % of control (HL-60 cells [6]; [8]): approximately 15%
activity relative to reference (in words) (HL-60 cells [6]; Example 5, 3 μM, 3 days, inhibition of cell growth): as effective as C2-ceramide
IC50 (HL-60 cells [6]; 72 h, Example 5, Table IV experiment, HL-60 growth, 3 days): 2500 nM
activity at 1 µM (HL-60 cells [6]; [9]): 100%
activity at 2 µM (HL-60 cells [6]; [9]): 71%
activity at 3 µM (HL-60 cells [6]; [10]): 45%
activity at 4 µM (HL-60 cells [6]; [9]): 20%
activity at 5 µM (HL-60 cells [6]; [9]): 10%
cells acquiring the ability to reduce NBT (HL-60 cells [7]): 42%
